Test results: publication PMC3684770 (Free Radical Biology & Medicine, 2013)
Like-named read-outs stand apart in the source and are kept apart here.

Legend:
Nrf2-ARE pathway = test: ARE reporter assay in CHO 4xARE-TK-GFP cells (Spectrum library hits)
Procedure: The Z′ score was calculated as follows Z′=1−(3SD^++3SD^−)/(Ave^+–Ave^−) where SD^+ = standard deviation of positive control wells; SD^− = standard deviation of negative control wells; Ave^+ = average fluorescence reading of positive control wells; Ave^− = average fluorescence reading of negative control wells.
Media was removed by hand and replaced (1 compound/well) with the Spectrum library diluted to 10 μM in 0.1% DMSO using a Q-bot liquid handling system (Genetix, New Milton, UK). […] The TK-GFP CHO ARE cell line was screened twice in a single point assay and the control TK-GFP CHO cell line was screened once to eliminate false positives.
The compounds were applied in triplicate to confluent cells in 96 well plates in serum free medium for 24 hours and the induction of GFP measured in a fluorescence plate reader.
In order to screen the Spectrum collection of 2000 molecules the reporter assay was optimised in […]. To assess the suitability of the assay for library screening, a Z’ score calculation was performed by treating alternate wells with vehicle (0.1% DMSO) and 10 µM Ebselen as a positive control (see calculation in Methods). […] The library was subsequently screened at a single point concentration of 10µM for every compound. Drug library dilutions and plating were performed with a Q-BOT liquid handling system and both the 4xARE-TK-GFP reporter cell line and TK-GFP control cell line were tested for their response to the compounds. Hits were identified as having data points more than three standard deviations above the background level, which was the average value of 24 wells treated with vehicle (0.1% DMSO) only. Hit compounds were checked to see if they generated a response in the control cell line, for example by non-specific activation of transcription or autofluorescence. […] The library screen was repeated once in the 4xARE –TK-CHO cell line and compounds classed as hits in both screens were taken forward for further assessment.

C6 astrocyte cell line [1] = test: C6 oxidative stress assay (serum withdrawal, DCF); conditions: for Emax: 24 h, read-out: C6 oxidative stress assay Max reduction; for IC50: read-out: C6 oxidative stress assay IC50
Procedure: (§1) Media were then replaced with serum-free, phenol-free media for 5 h.

C6 astrocyte cell line [2] = test system: C6 astrocyte cell line
Procedure: as §1

[3] = test system: 1321N1 astrocyte cell line; test: 1321N1 oxidative stress assay (serum withdrawal, DCF); conditions: for Emax: 1321-N1, 24 h, read-out: 1321N1 oxidative stress assay Max reduction
Procedure: as §1

NSC34 cells [4] = test system: NSC34 cells
Procedure: as §1

[5] = test system: 1321N1 astrocyte cell line
Procedure: as §1

NSC34 cells [6] = test: NSC34 oxidative stress assay (serum withdrawal, DCF); conditions: for Emax: Mus musculus, NSC-34, 24 h, read-out: NSC34 oxidative stress assay Max reduction
Procedure: as §1

[7] = lowest dose at which a reduction in GFP fluorescence was observed
[8] = Homo sapiens, 1321-N1, read-out: 1321N1 oxidative stress assay IC50
[9] = maximum % inhibition of DCF signal

SMILES	EC50 (Nrf2-ARE pathway; Cricetulus griseus)	Toxic dose (Nrf2-ARE pathway; [7])	Emax (C6 astrocyte cell line [1]; Rattus norvegicus, Astrocyte)	IC50 (C6 astrocyte cell line [1]; Rattus norvegicus, Astrocyte)	C6 oxidative stress assay Toxic dose (C6 astrocyte cell line [2])	Emax ([3]; Homo sapiens)	IC50 [3, 8]	NSC34 oxidative stress assay Toxic dose (NSC34 cells [4])	Emax (NSC34 cells [6])	1321N1 oxidative stress assay Toxic dose [5]	further results
O=C(CCBr)N1CCN(C(=O)CCBr)CC1 [Pipobroman, reference compound]	10 µM	100 µM	71%	11 µM	none	19%	3.16 µM	none	30%	–	1321N1 oxidative stress assay Toxic dose ([5]; human): 10 µM
C[C@@H]1C(=O)O[C@H]2[C@H]1CC[C@@]1(C)C=CC(=O)[C@@]3(C)O[C@@]213 [Epoxy(4,5α)-4,5-dihydrosantonin]	–	–	–	–	None	–	–	3 µM	–	None	Fold GFP induction (Nrf2-ARE pathway): 2.91 fold; Toxic dose (Nrf2-ARE pathway): 100 µM; EC50 (Nrf2-ARE pathway; CHO ARE reporter, 7-point concentration response): 18.2 µM; C6 oxidative stress assay Max reduction (C6 astrocyte cell line [1]; [9]): 62%; IC50 (C6 astrocyte cell line [1]; 24-h preconditioning, 6-h serum withdrawal, DCF fluorescence): 2.13 µM; 1321N1 oxidative stress assay Max reduction [3, 9]: 63%; IC50 ([3]; read-out: 1321N1 oxidative stress assay IC50, 24-h preconditioning, 6-h serum withdrawal, DCF fluorescence): 0.662 µM; NSC34 oxidative stress assay Max reduction (NSC34 cells [6]; maximum % inhibition of DCF signal, negative = prooxidant): 0%
Oc1ccc(O)cc1 [Hydroquinone, reference compound]	3.07 µM	100 µM	67%	7.07 µM	None	80%	3.38 µM	None	0%	None	–
CC(=O)CCC(=O)O [Levulinic acid]	12 µM	None	62%	7.69 µM	None	58%	3.31 µM	None	15%	None	–
C=C(C)C1(O)OC(=O)C=C1OC (stereo not drawn) [Penicillic acid]	14.9 µM	–	68%	4.62 µM	none	45%	–	none	9%	none	Toxic dose (Nrf2-ARE pathway; Chinese hamster): 100 µM; maximal fold induction (Nrf2-ARE pathway; Cricetulus griseus, CHO, 24 h, read-out: Fold GFP induction): 2.64
